From ChEMBL document CHEMBL1135951, “Potential anxiolytic agents. Part 4: novel orally-active N(5)-substituted pyrido[1,2-a]benzimidazoles with high GABA-A receptor affinity” (Bioorg Med Chem Lett, 2002) come the findings set out here.

The structures appear in SMILES notation. Some results are limits rather than exact numbers.

In the first experiment the target is T1, GABA-A receptor; anion channel (Rattus norvegicus) (UniProt O09028+P15431+P18506+P18508+P19969+P20236+P23574+P23576+P28471+P28473+P30191+P62813+P63079+P63138+Q91ZM7+Q9ES14). The experiment in a line: Ratio of the binding in the absence and presence of GABA was determined. The experiment is classed as protein-complex assay.
Conditions: not given
As to `CCOCN1C2=C(C(=O)Nc3ccc(OC)cc3F)C(=O)CCN2c2ccc(F)cc21`, the GABA shift was 2.2.
The same measure, in the same setting: with `O=C1CCN2C(=C1C(=O)Nc1ccccc1F)N(CCO)c1cc(F)ccc12` the figure was 2.7; with `CCOCCN1C2=C(C(=O)Nc3ccccc3F)C(=O)CCN2c2ccc(F)cc21`, 3.2.
For the compound `O=C1CCN2C(=C1C(=O)Nc1ccccc1F)N(CCc1ccccn1)c1cc(F)ccc12`, the GABA shift stood at 2.
Still for that read-out and setting: with `O=C1CCN2C(=C1C(=O)Nc1ccccc1F)N(CCCO)c1cc(F)ccc12` the figure was 1.8.
On the same count and under the same terms, then `CCOCN1C2=C(C(=O)Nc3ccccc3F)C(=O)CCN2c2c1ccc(F)c2F`, with 1.7; and `CC(=O)OCCN1C2=C(C(=O)Nc3ccccc3F)C(=O)CCN2c2ccc(F)cc21`, with 1.2.
On the same count and under the same terms, with `CN(C)c1ccc(CCN2C3=C(C(=O)Nc4ccccc4F)C(=O)CCN3c3ccc(F)cc32)cc1` the figure was 1.3.
On to `NCCN1C2=C(C(=O)Nc3ccccc3F)C(=O)CCN2c2ccc(F)cc21`, for which the GABA shift turned out to be 2.7.
With `CCOCN1C2=C(C(=O)Nc3ccc(O)cc3F)C(=O)CCN2c2ccc(F)cc21`, the GABA shift stood at 2.
The same measure, in the same setting: with `CCOCN1C2=C(C(=O)Nc3ccc(OC(=O)OC)cc3F)C(=O)CCN2c2ccc(F)cc21` the figure was 3.2.

For a further experiment, the species on record is Mus musculus. Description: Effective dose required for inhibition of pentylenetetrazole (PTZ)-induced seizures in mice perorally. It is filed as functional. The settings on record: po.
For orientation: ED50 means the dose that gives a 50% effect, or the effect in half of the subjects. The low end stands for greater potency, the high end for weaker potency. Turning to `CCOCN1C2=C(C(=O)Nc3ccc(OC)cc3F)C(=O)CCN2c2ccc(F)cc21`, it took a dose of 0.3 mg/kg to reach the 50% effect level (ED50).
`O=C1CCN2C(=C1C(=O)Nc1ccccc1F)N(CCO)c1cc(F)ccc12` gave an ED50 below 30 mg/kg.
For the compound `CCOCCN1C2=C(C(=O)Nc3ccccc3F)C(=O)CCN2c2ccc(F)cc21`, the ED50 turned out to be 0.3 mg/kg.
On the same count and under the same terms, then `O=C1CCN2C(=C1C(=O)Nc1ccccc1F)N(CCc1ccccn1)c1cc(F)ccc12`, with 10 mg/kg.
In turn, `O=C1CCN2C(=C1C(=O)Nc1ccccc1F)N(CCCO)c1cc(F)ccc12` yielded an ED50 of 0.5 mg/kg.
Still for that read-out and setting: then `CCOCN1C2=C(C(=O)Nc3ccccc3F)C(=O)CCN2c2c1ccc(F)c2F`, with above 30 mg/kg; and `CC(=O)OCCN1C2=C(C(=O)Nc3ccccc3F)C(=O)CCN2c2ccc(F)cc21`, with 3 mg/kg.
Consider `CN(C)c1ccc(CCN2C3=C(C(=O)Nc4ccccc4F)C(=O)CCN3c3ccc(F)cc32)cc1`, for which the ED50 is below 30 mg/kg.
The same measure, in the same setting: with `NCCN1C2=C(C(=O)Nc3ccccc3F)C(=O)CCN2c2ccc(F)cc21` the figure was 10 mg/kg.

In another experiment the test system is Mus musculus. Description: Effective dose required for inhibition of pentylenetetrazole (PTZ)-induced seizures in mice intraperitoneally. The experiment is classed as functional. The note with it: ip.
`O=C1CCN2C(=C1C(=O)Nc1ccccc1F)N(CCO)c1cc(F)ccc12` registered an ED50 of at most 1 mg/kg.
`CCOCCN1C2=C(C(=O)Nc3ccccc3F)C(=O)CCN2c2ccc(F)cc21` came in with an ED50 of at most 1 mg/kg.
On to `O=C1CCN2C(=C1C(=O)Nc1ccccc1F)N(CCc1ccccn1)c1cc(F)ccc12`, for which it took a dose of 0.3 mg/kg to reach the 50% effect level (ED50).
Regarding `O=C1CCN2C(=C1C(=O)Nc1ccccc1F)N(CCCO)c1cc(F)ccc12`, the ED50 came to 0.1 mg/kg.
`CCOCN1C2=C(C(=O)Nc3ccccc3F)C(=O)CCN2c2c1ccc(F)c2F` showed an ED50 of 1 mg/kg.
Same read-out and setting: then `CC(=O)OCCN1C2=C(C(=O)Nc3ccccc3F)C(=O)CCN2c2ccc(F)cc21`, with at most 1 mg/kg; and `CN(C)c1ccc(CCN2C3=C(C(=O)Nc4ccccc4F)C(=O)CCN3c3ccc(F)cc32)cc1`, with 1 mg/kg; and `NCCN1C2=C(C(=O)Nc3ccccc3F)C(=O)CCN2c2ccc(F)cc21`, with 0.3 mg/kg.
Same read-out and setting: then `CCOCN1C2=C(C(=O)Nc3ccc(OC(=O)OC)cc3F)C(=O)CCN2c2ccc(F)cc21`, with 1 mg/kg.

The next experiment is filed under the species Rattus norvegicus. Description: Minimum effective dose required for anticonflict in rat perorally. It is filed as functional. The note with it: po, read-out: MED.
Regarding `CCOCN1C2=C(C(=O)Nc3ccc(OC)cc3F)C(=O)CCN2c2ccc(F)cc21`, the minimal effective dose came to 0.03 mg/kg.
Same read-out and setting: with `O=C1CCN2C(=C1C(=O)Nc1ccccc1F)N(CCO)c1cc(F)ccc12` the figure was above 10 mg/kg; with `CCOCCN1C2=C(C(=O)Nc3ccccc3F)C(=O)CCN2c2ccc(F)cc21`, 1 mg/kg.
With `O=C1CCN2C(=C1C(=O)Nc1ccccc1F)N(CCc1ccccn1)c1cc(F)ccc12`, the minimal effective dose was above 10 mg/kg.
On the same count and under the same terms, with `O=C1CCN2C(=C1C(=O)Nc1ccccc1F)N(CCCO)c1cc(F)ccc12` the figure was 10 mg/kg.
Consider `CCOCN1C2=C(C(=O)Nc3ccccc3F)C(=O)CCN2c2c1ccc(F)c2F`, for which the minimal effective dose was above 10 mg/kg.
On the same count and under the same terms, with `CC(=O)OCCN1C2=C(C(=O)Nc3ccccc3F)C(=O)CCN2c2ccc(F)cc21` the figure was 3 mg/kg; with `NCCN1C2=C(C(=O)Nc3ccccc3F)C(=O)CCN2c2ccc(F)cc21`, 10 mg/kg.
On the same count and under the same terms, with `CCOCN1C2=C(C(=O)Nc3ccc(OC(=O)OC)cc3F)C(=O)CCN2c2ccc(F)cc21` the figure was 1 mg/kg.

The species entered for a further experiment is Rattus norvegicus. Description: Minimum effective dose required for anticonflict in rat perorally; value ranges from 1 to 3. The note with it: po, read-out: MED. The experiment is classed as functional.
Take `CCOCN1C2=C(C(=O)Nc3ccc(O)cc3F)C(=O)CCN2c2ccc(F)cc21`: the minimal effective dose was found to be 1 mg/kg.

The species named for another experiment is Mus musculus. Description: Effective dose required for inhibition of pentylenetetrazole (PTZ)-induced seizures in mice perorally; value ranges from 3 to 30. The experiment is classed as functional. The note with it: po.
`CCOCN1C2=C(C(=O)Nc3ccc(OC(=O)OC)cc3F)C(=O)CCN2c2ccc(F)cc21` gave an ED50 of 3 mg/kg.

For a further experiment, the target named is GABA-A receptor; anion channel. The experiment in a line: In vitro affinity for BZD site on GABA-A receptor from rat cerebral cortex using radioligand [3H]flunitrazepam. It is filed as tissue-based.
Conditions: not given
By IC50 is commonly meant the point on the concentration scale where inhibition reaches its midpoint. A high value points to a need for much substance. Regarding `CCOCN1C2=C(C(=O)Nc3ccc(OC)cc3F)C(=O)CCN2c2ccc(F)cc21`, the IC50 came to 0.4 nM.
On the same count and under the same terms, with `O=C1CCN2C(=C1C(=O)Nc1ccccc1F)N(CCO)c1cc(F)ccc12` the figure was 1.2 nM.
`CCOCCN1C2=C(C(=O)Nc3ccccc3F)C(=O)CCN2c2ccc(F)cc21` displayed an IC50 of 0.5 nM.
Turning to `O=C1CCN2C(=C1C(=O)Nc1ccccc1F)N(CCc1ccccn1)c1cc(F)ccc12`, the 50% inhibitory concentration (IC50) came to 0.9 nM.
Still for that read-out and setting: then `O=C1CCN2C(=C1C(=O)Nc1ccccc1F)N(CCCO)c1cc(F)ccc12`, with 1.1 nM; and `CCOCN1C2=C(C(=O)Nc3ccccc3F)C(=O)CCN2c2c1ccc(F)c2F`, with 126 nM.
The same measure, in the same setting: with `CC(=O)OCCN1C2=C(C(=O)Nc3ccccc3F)C(=O)CCN2c2ccc(F)cc21` the figure was 0.2 nM; with `CN(C)c1ccc(CCN2C3=C(C(=O)Nc4ccccc4F)C(=O)CCN3c3ccc(F)cc32)cc1`, 8.5 nM.
The compound `NCCN1C2=C(C(=O)Nc3ccccc3F)C(=O)CCN2c2ccc(F)cc21` returned an IC50 of 5.1 nM.
Same read-out and setting: with `CCOCN1C2=C(C(=O)Nc3ccc(O)cc3F)C(=O)CCN2c2ccc(F)cc21` the figure was 1.4 nM.
Same read-out and setting: with `CCOCN1C2=C(C(=O)Nc3ccc(OC(=O)OC)cc3F)C(=O)CCN2c2ccc(F)cc21` the figure was 4.3 nM.

A further experiment has as its target T1, GABA-A receptor; anion channel (Rattus norvegicus). The experiment in a line: Minimum effective dose required for anticonflict in rat intraperitoneally. It is filed as functional.
Conditions: not given
As to `CCOCN1C2=C(C(=O)Nc3ccc(OC)cc3F)C(=O)CCN2c2ccc(F)cc21`, the MED worked out at 0.1 mg/kg.
Still for that read-out and setting: then `O=C1CCN2C(=C1C(=O)Nc1ccccc1F)N(CCO)c1cc(F)ccc12`, with 10 mg/kg; and `CCOCCN1C2=C(C(=O)Nc3ccccc3F)C(=O)CCN2c2ccc(F)cc21`, with below 10 mg/kg; and `O=C1CCN2C(=C1C(=O)Nc1ccccc1F)N(CCc1ccccn1)c1cc(F)ccc12`, with 10 mg/kg.
Still for that read-out and setting: with `O=C1CCN2C(=C1C(=O)Nc1ccccc1F)N(CCCO)c1cc(F)ccc12` the figure was 10 mg/kg; with `CN(C)c1ccc(CCN2C3=C(C(=O)Nc4ccccc4F)C(=O)CCN3c3ccc(F)cc32)cc1`, above 10 mg/kg; with `NCCN1C2=C(C(=O)Nc3ccccc3F)C(=O)CCN2c2ccc(F)cc21`, 10 mg/kg.
Consider `CCOCN1C2=C(C(=O)Nc3ccc(O)cc3F)C(=O)CCN2c2ccc(F)cc21`, for which the MED came out at 1 mg/kg.

For the next experiment, the species on record is Mus musculus. Description: Effective dose required for inhibition of pentylenetetrazole (PTZ)-induced seizures in mice perorally; value ranges from 0.3 to 3. It is filed as functional. The note with it: po.
Turning to `CCOCN1C2=C(C(=O)Nc3ccc(O)cc3F)C(=O)CCN2c2ccc(F)cc21`, the ED50 came to 0.3 mg/kg.
